Source: US9913849B2, “Treatment of migraines” (Manistee Partners LLC, priority 2014, dated 2018)
Read-outs that look alike come from different tables or passages of the source.

How the values were obtained:
[1] = cited from earlier work
[2] = cited from earlier work; remark: listed apart in the source
[3] = test system: subject with a history of migraine headaches; experiment: Migraine case reports, topical administration to the eye(s); assay type: in vivo, human; conditions: Example 1: person, 0.0004% single drop in both eyes once per day in the evening, 30 days
Method: A subject was treated with ocular administration of travoprost 0.0004% once per day as a single drop in both eyes in the evening. The subject reported that they had no migraines after being on therapy for 30 days.
A person with a fifteen year history of severe migraine headaches refractory to multiple therapies, started treatment with TRAVATAN Z® (travoprost ophthalmic solution) administered topically to one eye daily.
A person with a history of migraine headaches (one per week) was started on daily topical administration of the prostaglandin, XALATAN® (latanoprost ophthalmic solution), to both eyes daily.

[4] = cited from earlier work; remark: listed apart in the source
[5] = one drop 0.0015% solution once daily into each eye, cited from earlier work
[6] = blood, days 7 and 14, 0.03% once daily to both eyes

## CCNC(=O)CCC/C=C\C[C@@H]1[C@@H](/C=C/[C@@H](O)CCc2ccccc2)[C@H](O)C[C@@H]1O [Bimatoprost, (Z)-7-[(1R,2R,3R,5S)-3,5Dihydroxy-2-[(1E,3S)-3-hydroxy-5-phenyl-1-pentenyl]cyclopentyl]-5-N-ethylheptenamide]
[1]; [6]
  mean AUCO-24 hr: ~0.09 ng·h/mL
  mean Cmax: approximately 0.08 ng/mL
[1]; human blood
  distribution in human blood: resides mainly in the plasma
[1]; human, in vivo
  steady-state volume of distribution: 0.67 L/kg
[1]; in most subjects within 1.5 hours after dosing, 0.03% once daily to both eyes
  blood concentration (below lower limit of detection): < 0.025 ng/mL
[1]; one drop 0.03% once daily to both eyes, 15 healthy subjects, two weeks
  time at which blood concentrations peaked after dosing: ≤ 10 min

## O=C(O)CCC/C=C\C[C@@H]1[C@@H](CC[C@@H](O)CCc2ccccc2)[C@H](O)C[C@@H]1O [acid of latanoprost]
[2]; after local administration
  time during which the acid can be measured in aqueous humor: ≤ 4 h
  time during which the acid can be measured in plasma: only during the first hour

## CC(C)OC(=O)CCC/C=C\C[C@@H]1[C@@H](/C=C/[C@@H](O)COc2cccc(C(F)(F)F)c2)[C@H](O)C[C@@H]1O (relative stereo) [travoprost, [1R-[1α(Z),2β(1E,3R*),3α, 5α]]-7-[3,5-Dihydroxy-2-[3-hydroxy-4-[3-(trifluoromethyl)phenoxy]-1-butenyl]cyclopentyl]-5-heptenoic acid, 1-methylethylester]
[3]
  migraines reported on therapy: no migraines

## CC(C)OC(=O)CCC/C=C\C[C@@H]1[C@@H](CC[C@@H](O)CCc2ccccc2)[C@H](O)C[C@@H]1O [Latanoprost, isopropyl-(Z)7[(1R,2R,3R,5S)3,5-dihydroxy-2-[(3R)-3-hydroxy-5-phenylpentyl]cyclopentyl]-5-heptenoate, reference compound]
[2]; in humans
  distribution volume: 0.16 ± 0.02 L/kg

## O=C(O)CCC/C=C\C[C@@H]1[C@@H](/C=C/[C@@H](O)COc2cccc(C(F)(F)F)c2)[C@H](O)C[C@@H]1O [travoprost free acid]
[4]; individuals with quantifiable plasma concentrations (N=38)
  mean plasma Cmax: 0.018 ± 0.007 ng/mL
[4]; single drop daily in both eyes, in two-thirds of the subjects
  plasma concentrations of the free acid (below quantitation limit of the assay): below 0.01 ng/ml

## O=C(O)CCC/C=C\C[C@@H]1[C@@H](/C=C/C(F)(F)COc2ccccc2)[C@H](O)C[C@@H]1O [tafluprost acid]
[5]; Day 1
  mean plasma AUC estimate of tafluprost acid: 394 pg·min/mL
  mean plasma Cmax of tafluprost acid: 0.026 ng/mL
[5]; Day 8
  mean plasma AUC estimate of tafluprost acid: 432 pg·min/mL
  mean plasma Cmax of tafluprost acid: 0.027 ng/mL
[5]; healthy volunteers, both Days 1 and 8
  median time at which plasma concentrations of tafluprost acid peaked: 10 min
